Measured values reported in PubChem BioAssay (NCI).
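Briefly, cells in 96-well plates were exposed to five compound concentrations for 48 h, and endpoints were estimated by linear interpolation. GI50: concentration for 50% inhibition of growth. TGI: total growth inhibition.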

How the values were obtained:
Assay in all cases: NCI-60 cell line screen, 48 h
PC-3 prostate = tested on: PC-3 prostate
UO-31 renal = tested on: UO-31 renal
SK-MEL-2 melanoma = tested on: SK-MEL-2 melanoma
U251 CNS = tested on: U251 CNS
SK-MEL-5 melanoma = tested on: SK-MEL-5 melanoma
NCI-H522 lung = tested on: NCI-H522 lung
SK-OV-3 ovarian = tested on: SK-OV-3 ovarian
HCT-15 colon = tested on: HCT-15 colon
HOP-62 NSCLC = tested on: HOP-62 NSCLC
CCRF-CEM leukemia = tested on: CCRF-CEM leukemia
SN12C renal = tested on: SN12C renal
HS 578T breast = tested on: HS 578T breast
HT29 colon = tested on: HT29 colon
HCC-2998 colon = tested on: HCC-2998 colon
SNB-19 CNS = tested on: SNB-19 CNS
IGROV1 ovarian = tested on: IGROV1 ovarian
MDA-MB-231 breast = tested on: MDA-MB-231 breast
RXF 393 renal = tested on: RXF 393 renal
MOLT-4 leukemia = tested on: MOLT-4 leukemia
COLO 205 colon = tested on: COLO 205 colon
OVCAR-3 ovarian = tested on: OVCAR-3 ovarian
SF-539 CNS = tested on: SF-539 CNS
T-47D breast = tested on: T-47D breast
MCF7 breast = tested on: MCF7 breast
NCI-H23 lung = tested on: NCI-H23 lung
OVCAR-8 ovarian = tested on: OVCAR-8 ovarian
HOP-92 NSCLC = tested on: HOP-92 NSCLC
SK-MEL-28 melanoma = tested on: SK-MEL-28 melanoma
SR leukemia = tested on: SR leukemia
DU-145 prostate = tested on: DU-145 prostate
BT-549 breast = tested on: BT-549 breast
786-0 renal = tested on: 786-0 renal
A549 NSCLC = tested on: A549 NSCLC
HL-60(TB) leukemia = tested on: HL-60(TB) leukemia
MALME-3M melanoma = tested on: MALME-3M melanoma
K-562 leukemia = tested on: K-562 leukemia
SW-620 colon = tested on: SW-620 colon
NCI-H460 lung = tested on: NCI-H460 lung
M14 melanoma = tested on: M14 melanoma
MDA-MB-435 = tested on: MDA-MB-435
OVCAR-5 ovarian = tested on: OVCAR-5 ovarian
NCI-H226 lung = tested on: NCI-H226 lung
NCI/ADR-RES ovarian = tested on: NCI/ADR-RES ovarian
RPMI-8226 leukemia = tested on: RPMI-8226 leukemia
ACHN renal = tested on: ACHN renal
OVCAR-4 ovarian = tested on: OVCAR-4 ovarian
SF-268 CNS = tested on: SF-268 CNS
UACC-257 melanoma = tested on: UACC-257 melanoma
A498 renal = tested on: A498 renal
HCT-116 colon = tested on: HCT-116 colon
LOX IMVI melanoma = tested on: LOX IMVI melanoma
KM12 colon = tested on: KM12 colon
SF-295 CNS = tested on: SF-295 CNS
UACC-62 melanoma = tested on: UACC-62 melanoma
TK-10 renal = tested on: TK-10 renal

## COc1cc(-c2cc(/C=C/C(=O)c3ccc(N)cc3)[nH]n2)cc(OC)c1OC
PC-3 prostate
  GI50: 2210 nM
  TGI: 10400 nM
UO-31 renal
  GI50: 1360 nM
  TGI: 2860 nM
SK-MEL-2 melanoma
  GI50: 2850 nM
  TGI: 7530 nM
U251 CNS
  GI50: 1420 nM
  TGI: 2770 nM
SK-MEL-5 melanoma
  GI50: 1650 nM
  TGI: 3060 nM
NCI-H522 lung
  GI50: 1620 nM
  TGI: 3990 nM
SK-OV-3 ovarian
  GI50: 2990 nM
  TGI: 8320 nM
HCT-15 colon
  GI50: 1370 nM
  TGI: 6760 nM
HOP-62 NSCLC
  GI50: 1770 nM
  TGI: 3920 nM
CCRF-CEM leukemia
  GI50: 556 nM
  TGI: 4170 nM
SN12C renal
  GI50: 1860 nM
  TGI: 4520 nM
HS 578T breast
  GI50: 4330 nM
  TGI: > 100000 nM
HT29 colon
  GI50: 1850 nM
  TGI: 4820 nM
HCC-2998 colon
  GI50: 2010 nM
  TGI: 3630 nM
SNB-19 CNS
  GI50: 2340 nM
  TGI: 9980 nM
IGROV1 ovarian
  GI50: 3200 nM
  TGI: 10500 nM
MDA-MB-231 breast
  GI50: 2060 nM
  TGI: 12200 nM
RXF 393 renal
  GI50: 1350 nM
  TGI: 3240 nM
MOLT-4 leukemia
  GI50: 1910 nM
  TGI: 8510 nM
COLO 205 colon
  GI50: 1740 nM
  TGI: 3340 nM
OVCAR-3 ovarian
  GI50: 1570 nM
  TGI: 3370 nM
SF-539 CNS
  GI50: 1300 nM
  TGI: 2660 nM
T-47D breast
  GI50: 1420 nM
  TGI: 4300 nM
MCF7 breast
  GI50: 1500 nM
  TGI: 5420 nM
NCI-H23 lung
  GI50: 2480 nM
  TGI: 6790 nM
OVCAR-8 ovarian
  GI50: 2390 nM
  TGI: 9760 nM
HOP-92 NSCLC
  GI50: 3680 nM
  TGI: 27600 nM
SK-MEL-28 melanoma
  GI50: 1860 nM
  TGI: 4080 nM
SR leukemia
  GI50: 326 nM
  TGI: 2750 nM
DU-145 prostate
  GI50: 1650 nM
  TGI: 4050 nM
BT-549 breast
  GI50: 1380 nM
  TGI: 2820 nM
786-0 renal
  GI50: 2040 nM
  TGI: 6490 nM
A549 NSCLC
  GI50: 2080 nM
  TGI: 7020 nM
HL-60(TB) leukemia
  GI50: 1740 nM
  TGI: 10800 nM
MALME-3M melanoma
  GI50: 2050 nM
  TGI: 4710 nM
K-562 leukemia
  GI50: 726 nM
  TGI: 23600 nM
SW-620 colon
  GI50: 2050 nM
  TGI: 6370 nM
NCI-H460 lung
  GI50: 1800 nM
  TGI: 5100 nM
M14 melanoma
  GI50: 1830 nM
  TGI: 3860 nM
MDA-MB-435
  GI50: 1660 nM
  TGI: 3210 nM
OVCAR-5 ovarian
  GI50: 1780 nM
  TGI: 3750 nM
NCI-H226 lung
  GI50: 1710 nM
  TGI: 3510 nM
NCI/ADR-RES ovarian
  GI50: 3800 nM
  TGI: 65800 nM
RPMI-8226 leukemia
  GI50: 479 nM
  TGI: 2770 nM
ACHN renal
  GI50: 1610 nM
  TGI: 3670 nM
OVCAR-4 ovarian
  GI50: 1400 nM
  TGI: 5440 nM
SF-268 CNS
  GI50: 1690 nM
  TGI: 3930 nM
UACC-257 melanoma
  GI50: 1870 nM
  TGI: 4020 nM
A498 renal
  GI50: 1640 nM
  TGI: 4330 nM
HCT-116 colon
  GI50: 1100 nM
  TGI: 2610 nM
LOX IMVI melanoma
  GI50: 1600 nM
  TGI: 3280 nM
KM12 colon
  GI50: 1140 nM
  TGI: 2880 nM
SF-295 CNS
  GI50: 2550 nM
  TGI: 10900 nM
UACC-62 melanoma
  GI50: 1700 nM
  TGI: 3580 nM
TK-10 renal
  GI50: 4840 nM
  TGI: 17500 nM
